The target of this test is T1, GST-RIPK1 (recombinant GST-RIPK1 kinase domain (residues 1-327)) (Homo sapiens, UniProt Q13546).
T1 construct: recombinant GST-RIPK1 kinase domain (residues 1-327) enzyme produced from baculovirus-transfected Sf21 cells; host or cells: baculovirus-transfected Sf21 insect cells
T1 sequence (Q13546 1-327): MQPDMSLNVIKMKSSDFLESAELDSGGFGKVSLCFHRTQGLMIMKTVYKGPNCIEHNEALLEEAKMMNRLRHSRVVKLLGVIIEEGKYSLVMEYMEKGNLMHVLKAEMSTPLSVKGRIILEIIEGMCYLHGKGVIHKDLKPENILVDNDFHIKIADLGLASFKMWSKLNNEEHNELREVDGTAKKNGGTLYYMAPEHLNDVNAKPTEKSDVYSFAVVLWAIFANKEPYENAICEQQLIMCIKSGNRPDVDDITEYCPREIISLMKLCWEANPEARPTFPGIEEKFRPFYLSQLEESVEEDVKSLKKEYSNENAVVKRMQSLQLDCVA
Kind of test: RIPK1-ADP-Glo Enzymatic Assay. The conditions noted are these: ten-point titration, top compound concentration of 100000 nM; 25 nM GST-RIPK1, 300 μM ATP, 3 μM dephosphorylated-MBP; 30 min pre-incubation, 150 min reaction. In kind it is biochemical. The method in brief: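 ADP-Glo luminescence quantifies ADP formed over 150 minutes by 25 nM Sf21-produced GST-RIPK1 (1-327) using 300 μM ATP and 3 μM dephosphorylated MBP, following 30-minute compound preincubation at 1% DMSO. Ten-point 1:3 series from 100000 nM gave EC50 via four-parameter sigmoidal regression.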
A general note: In ADP-Glo the light output rises with the ADP produced.

Structures are written as SMILES.

The results in this text go back to US20250154173A1 (Merck Sharp & Dohme LLC, priority 2023, published 2025).

By EC50 is commonly meant the concentration that produces a half-maximal response.

For `O=C1N2[C@@H](CC[C@H]2c2ccccc2)OC12CC(Oc1nncc3cccn13)C2` (stereo partly drawn) [Example 8.23, (5′S,7a′R)-5′-phenyl-3-[(pyrrolo[1,2-d][1,2,4]triazin-4-yl)oxy]tetrahydro-3′H-spiro[cyclobutane-1,2′-pyrrolo[2,1-b][1,3]oxazol]-3′-one], the EC50 was found to be 29 nM.

With `N#Cc1cc(OC2CC3(C2)O[C@@H]2CC[C@@H](c4cc(F)cc(F)c4)N2C3=O)ncc1F` (single isomer, unassigned) [Example 17.2, 2-((((1r or s),3S,5′S,7a′R)-5′-(3,5-difluorophenyl)-3′-oxotetrahydro-3′H-spiro[cyclobutane-1,2′-pyrrolo[2,1-b]oxazol]-3-yl)oxy)-5-fluoroisonicotinonitrile], the concentration for a half-maximal effect (EC50) turned out to be 227 nM.

For the compound `O=C1N2[C@@H](CC[C@H]2c2cnccn2)OC12CC(OCc1ccnc3nncn13)C2` (stereo partly drawn) [Example 20.4, (5′S,7a′R)-5′-(pyrazin-2-yl)-3-[([1,2,4]triazolo[4,3-a]pyrimidin-5-yl)methoxy]tetrahydro-3′H-spiro[cyclobutane-1,2′-pyrrolo[2,1-b][1,3]oxazol]-3′-one], the concentration giving a half-maximal response (EC50) was found to be 179 nM.

`CC(OC1CC2(C1)OC1CCC(c3cc(F)cc(F)c3)N1C2=O)c1ccccc1` (single isomer, unassigned) [Example 15.2, ((1R or S),3R,5′S,7a′R)-5′-(3,5-difluorophenyl)-3-((S or R)-1-phenylethoxy)tetrahydro-3′H-spiro[cyclobutane-1,2′-pyrrolo[2,1-b]oxazol]-3′-one]: the EC50 was determined as 70 nM.

Take `N#Cc1cc(OC2CC3(C2)O[C@@H]2CC[C@@H](c4cccc(F)c4F)N2C3=O)ncn1` (single isomer, unassigned) [Example 9.41, 6-{[(5′S,7a′R)-5′-(2,3-difluorophenyl)-3′-oxotetrahydro-3′H-spiro[cyclobutane-1,2′-pyrrolo[2,1-b][1,3]oxazol]-3-yl]oxy}pyrimidine-4-carbonitrile]: the concentration for a half-maximal effect (EC50) was determined as 14 nM.

Regarding `O=C1N2[C@@H](CC[C@H]2c2ccc(F)cc2)O[C@]12C[C@H](Oc1cncc(F)c1)C2` [Example 9.48, (1r,3R,5′S,7a′R)-5′-(4-fluorophenyl)-3-[(5-fluoropyridin-3-yl)oxy]tetrahydro-3′H-spiro[cyclobutane-1,2′-pyrrolo[2,1-b][1,3]oxazol]-3′-one], the EC50 was determined as 20 nM.

For the compound `O=C1N2[C@@H](CC[C@H]2c2cnccn2)O[C@]12C[C@@H](OCc1ccc3scnc3c1)C2` [Example 18.23, (1s,3S,5′S,7a′R)-3-[(1,3-benzothiazol-5-yl)methoxy]-5′-(pyrazin-2-yl)tetrahydro-3′H-spiro[cyclobutane-1,2′-pyrrolo [2,1-b][1,3]oxazol]-3′-one], the EC50 was found to be 27 nM.

Turning to `Cn1cc2cc(COC3CC4(C3)O[C@@H]3CC[C@@H](c5cnccn5)N3C4=O)ccc2n1` (stereo partly drawn) [Example 20.3, (5′S,7a′R)-3-[(2-methyl-2H-indazol-5-yl)methoxy]-5′-(pyrazin-2-yl)tetrahydro-3′H-spiro[cyclobutane-1,2′-pyrrolo[2,1-b][1,3]oxazol]-3′-one], the half-maximal effective concentration (EC50) worked out at 126 nM.

In the case of `Cc1nnc(-c2cc(O[C@H]3C[C@@]4(C3)O[C@@H]3CC[C@@H](c5cc(F)cc(F)c5)N3C4=O)ncn2)o1` [Example 9.53, (5′S,7a′R)-5′-(3,5-difluorophenyl)-3-((6-(5-methyl-1,3,4-oxadiazol-2-yl)pyrimidin-4-yl)oxy)tetrahydro-3′H-spiro[cyclobutane-1,2′-pyrrolo[2,1-b]oxazol]-3′-one], the concentration for a half-maximal effect (EC50) came out at 50 nM.

Regarding `N#Cc1ccoc1COC1CC2(C1)OC1CC[C@@H](c3cnccn3)N1C2=O` (stereo partly drawn) [Example 18.104, 2-({[(5′S)-3′-oxo-5′-(pyrazin-2-yl)tetrahydro-3′H-spiro[cyclobutane-1,2′-pyrrolo[2,1-b][1,3]oxazol]-3-yl]oxy}methyl)furan-3-carbonitrile], the EC50 was found to be 355 nM.

For the compound `O=C1N2[C@@H](CC[C@H]2c2ccc(F)cc2)OC12CC(OCc1cccnc1)C2` (stereo partly drawn) [Example 9.60, (5′S,7a′R)-5′-(4-fluorophenyl)-3-[(pyridin-3-yl)methoxy]tetrahydro-3′H-spiro[cyclobutane-1,2′-pyrrolo[2,1-b][1,3]oxazol]-3′-one], the EC50 was 188 nM.

For `O=C1N2[C@@H](CC[C@H]2c2cc(F)cc(F)c2)OC12CC(Oc1ccnc3c(F)cnn13)C2` (single isomer, unassigned) [Example 9.4], the EC50 worked out at 105 nM.

Take `CC(OC1CC2(C1)OC1CCC(c3cc(F)cc(F)c3)N1C2=O)c1ccccc1` (single isomer, unassigned) [Example 15.3, ((1S or R),3R,5′S,7a′R)-5′-(3,5-difluorophenyl)-3-((R or S)-1-phenylethoxy)tetrahydro-3′H-spiro[cyclobutane-1,2′-pyrrolo[2,1-b]oxazol]-3′-one]: the half-maximal effective concentration (EC50) amounted to 26 nM.

For `O=C1N2[C@@H](CC[C@H]2c2cc(F)cc(F)c2)O[C@]12C[C@H](Oc1cc(-n3cccn3)ncn1)C2` [Example 9.6, (5′S,7a′R)-5′-(3,5-difluorophenyl)-3-{[6-(1H-pyrazol-1-yl)pyrimidin-4-yl]oxy}tetrahydro-3′H-spiro[cyclobutane-1,2′-pyrrolo[2,1-b][1,3]oxazol]-3′-one], the EC50 came to 12 nM.

For the compound `Cn1ccc([C@@H]2CC[C@H]3O[C@]4(C[C@H](Oc5ncnn6cccc56)C4)C(=O)N32)n1` [Example 9.63, (1r,3R,5′S,7a′R)-5′-(1-methyl-1H-pyrazol-3-yl)-3-[(pyrrolo[2,1-f][1,2,4]triazin-4-yl)oxy]tetrahydro-3′H-spiro[cyclobutane-1,2′-pyrrolo[2,1-b][1,3]oxazol]-3′-one], the EC50 came to 33.3 nM.

`N#Cc1ccc(COC2CC3(C2)OC2CC[C@@H](c4cnccn4)N2C3=O)c2cccnc12` (stereo partly drawn) [Example 18.65, 5-({[(5′S)-3′-oxo-5′-(pyrazin-2-yl)tetrahydro-3′H-spiro[cyclobutane-1,2′-pyrrolo[2,1-b][1,3]oxazol]-3-yl]oxy}methyl)quinoline-8-carbonitrile]: the concentration for a half-maximal effect (EC50) was 32 nM.

Turning to `N#Cc1ccnc(O[C@H]2C[C@@]3(C2)O[C@@H]2CC[C@@H](c4cc(F)cc(F)c4)N2C3=O)n1` [Example 9.57, 2-(((1r,3R,5′S,7a′R)-5′-(3,5-difluorophenyl)-3′-oxotetrahydro-3′H-spiro[cyclobutane-1,2′-pyrrolo[2,1-b]oxazol]-3-yl)oxy)pyrimidine-4-carbonitrile], the concentration for a half-maximal effect (EC50) was found to be 69 nM.

With `O=C1N2C(CC[C@H]2c2cnccn2)OC12CC(OCc1cccc(N3CCCC3)n1)C2` (stereo partly drawn) [Example 18.96, (5′S)-5′-(pyrazin-2-yl)-3-{[6-(pyrrolidin-1-yl)pyridin-2-yl]methoxy}tetrahydro-3′H-spiro[cyclobutane-1,2′-pyrrolo[2,1-b][1,3]oxazol]-3′-one], the EC50 is 225 nM.

As to `N#Cc1cc(O[C@H]2C[C@]3(C2)O[C@@H]2CC[C@@H](c4cc(F)cc(F)c4)N2C3=O)ncn1` [Example 9.12, 6-(((1s,3S,5′S,7a′R)-5′-(3,5-difluorophenyl)-3′-oxotetrahydro-3′H-spiro[cyclobutane-1,2′-pyrrolo[2,1-b]oxazol]-3-yl)oxy)pyrimidine-4-carbonitrile], the EC50 came to 446 nM.

As to `COc1ccc(C#N)nc1COC1CC2(C1)OC1CC[C@@H](c3cnccn3)N1C2=O` (stereo partly drawn) [Example 18.75, 5-methoxy-6-({[(5′S)-3′-oxo-5′-(pyrazin-2-yl)tetrahydro-3′H-spiro[cyclobutane-1,2′-pyrrolo[2,1-b][1,3]oxazol]-3-yl]oxy}methyl)pyridine-2-carbonitrile], the EC50 turned out to be 896 nM.

Take `N#Cc1cccc(COC2CC3(C2)O[C@@H]2CC[C@@H](c4cnccn4)N2C3=O)c1` (stereo partly drawn) [Example 18.109, 3-((((5′S,7a′R)-3′-oxo-5′-(pyrazin-2-yl)tetrahydro-3′H-spiro[cyclobutane-1,2′-pyrrolo[2,1-b]oxazol]-3-yl)oxy)methyl)benzonitrile]: the EC50 was found to be 25 nM.

Turning to `N#Cc1cccc(OC2CC3(C2)O[C@@H]2CC[C@@H](c4cnccn4)N2C3=O)c1` (stereo partly drawn) [Example 19.3, 3-{[(5′S,7a′R)-3′-oxo-5′-(pyrazin-2-yl)tetrahydro-3′H-spiro[cyclobutane-1,2′-pyrrolo[2,1-b][1,3]oxazol]-3-yl]oxy}benzonitrile], the EC50 worked out at 20 nM.

For the compound `N#Cc1ccnc(O[C@H]2C[C@@]3(C2)O[C@@H]2CC[C@@H](c4cc(F)cc(F)c4)N2C3=O)n1` [Example 9.20, 2-{[(1r,3R,5′S,7a′R)-5′-(3,5-difluorophenyl)-3′-oxotetrahydro-3′H-spiro[cyclobutane-1,2′-pyrrolo[2,1-b][1,3]oxazol]-3-yl]oxy}pyrimidine-4-carbonitrile], the EC50 turned out to be 53 nM.

On to `N#Cc1ccc(OC2CCC2)cc1COC1CC2(C1)OC1CC[C@@H](c3cnccn3)N1C2=O` (stereo partly drawn) [Example 18.88, 4-(cyclobutyloxy)-2-({[(5′S)-3′-oxo-5′-(pyrazin-2-yl)tetrahydro-3′H-spiro[cyclobutane-1,2′-pyrrolo[2,1-b][1,3]oxazol]-3-yl]oxy}methyl)benzonitrile], for which the half-maximal effective concentration (EC50) stood at 169 nM.
